Test results reported in patent US9616006B2, “Methods and compositions for treating dermatological diseases and conditions” (priority 2007, dated 2017).

What was measured:
[1] = tested on: HAS-2 (Hyaluronic acid synthase-2); test: HAS-2 mRNA in fibroblasts by RT-PCR; type: cell-based, human; details: 72 hours
From the text: (§1) The presently claimed and disclosed inventive concept(s) further contemplates use of various DHE, IE and EV compositions and salts, esters, ethers, and derivatives thereof to mitigate the effects of aging on the skin. For all aging studies, normal human fibroblast cell cultures were used. These cells normally produce collagen, elastin and hyaluronic acid. As the skin ages, the fibroblasts in the dermis lose their ability to produce these three key components of skin, and the skin consequently loses elasticity, thickness and smooth texture. In addition, as fibroblasts age, they increase the expression of certain enzymes that destroy collagen and elastin. There are about 13 of these enzymes, collectively referred to as MMPs (matrix metalloproteinases). One of the principal MMPs, MMP-1, is responsible for collagen degradation. For experiments herein to determine the effects of DHE, IE and EV on collagen, elastin and hyaluronic acid, fibroblasts were treated with the compounds for 72 hours, mRNA was then isolated, and analyzed for abundance by RT-PCR (Reverse transcriptase-Polymerase Chain Reaction).
DHE, IE and EV, are also shown herein to stimulate mRNA for HAS-2. HAS-2 (Hyaluronic acid synthase-2) is the enzyme that manufactures hyaluronic acid (HA) in the skin. HA is a glycosaminoglycan important for maintaining moisture and suppleness in the skin. […] As the skin ages, the production of HA decreases and this causes the skin to sag and become thin.

collagen 1 mRNA = test: Collagen mRNA in fibroblasts by RT-PCR; type: cell-based, human; details: fibroblast cell cultures treated 72 hours
From the text: as §1, with “[…] Fibroblast cell cultures” for “For experiments herein to determine the effects of DHE, IE and EV on collagen, elastin and hyaluronic acid, fibroblasts”, “either IE, DHE or EV” for “the compounds”, “hours at which time the amount of collagen” for “hours,”, “mRNA present in the cells” for “mRNA”, “determined.” for “then isolated, and analyzed for abundance by RT-PCR (Reverse transcriptase-Polymerase Chain Reaction).”

[2] = type: physicochemical; details: water-oil emulsion
Experimental: This surprising and unexpected finding meant that it was necessary to identify a carrier/vehicle system that would accommodate EV in a soluble form and at the same time maintain its chemical stability (defined herein as at least 95% of the ethyl vanillin remaining chemically intact for at least 3 months). In one formulation contemplated herein, EV is dissolved in caprylic/capric triglyceride or other fatty acid triglyceride and then mixed into a silicone fluid wherein the silicone is the primary (greatest percentage) component of the formulation. The cosmetic silicone fluid used in this embodiment accepts the caprylic/capric triglyceride and allows the EV to remain in solution. […] Therefore, the presently claimed and disclosed inventive concept(s) contemplates formulations of EV in non-aqueous solutions, particularly comprising at least 20% to 25% to 30% to 35% to 40% to 45% to 50%, or up to 60%, 70%, 80% or 90% silicone thereby explicitly excluding water-in-oil, or oil-in-water, emulsions. Additionally, besides caprylic capric triglyceride, EV can be solubilized in jojoba oil, sunflower oil or squalane or any other solubilizer which is accepted by the silicones. […]

[3] = tested on: MMP-1, MMP-3, MMP-8, MMP-9 MMP-10 and MMP-13; test: MMP protein abundance in human dermal fibroblasts (protein array blotting); type: cell-based
From the text: As mentioned above, as fibroblasts age they increase their production of MMP enzymes that destroy collagen and elastin, particularly collagenase, MMP-1. We utilized a protein array blotting technique to determine the effect of DHE, IE and EV on the protein abundance of these enzymes. As shown below, EV is able to reduce the level of several MMPs in human dermal fibroblasts, including MMP-1, MMP-3, MMP-8, MMP-9 MMP-10 and MMP-13 (FIG. 12). This remarkable effect makes this compound an ideal addition to an anti-aging product since MMP levels in aging skin are quite high.

elastin mRNA = test: Elastin mRNA in human dermal fibroblasts by RT-PCR; type: cell-based; details: 72 hours
From the text: The presently claimed and disclosed inventive concept(s) further contemplates use of various DHE, IE and EV compositions and salts, esters, ethers, and derivatives thereof to mitigate the effects of aging on the skin. For all aging studies, normal human fibroblast cell cultures were used. These cells normally produce collagen, elastin and hyaluronic acid. As the skin ages, the fibroblasts in the dermis lose their ability to produce these three key components of skin, and the skin consequently loses elasticity, thickness and smooth texture. […] There are about 13 of these enzymes, collectively referred to as MMPs (matrix metalloproteinases). One of the principal MMPs, MMP-1, is responsible for collagen degradation. […] The image is from an electrophoresis gel of DNA amplified by PCR from fibroblast mRNA. This gel was analyzed and the density of each band quantified by image analysis software.

TIMP-1 = TIMP-1 mRNA in fibroblasts by PCR; type: cell-based, human
From the text: as §1
Fibroblasts in the skin not only produce enzymes (MMPs) that destroy the skin matrix but they also produce proteins (Tissue Inhibitors of Metalloproteinases, i.e., TIMPS) that inhibit these enzymes. There are several TIMPs, but one that is most important for inhibiting MMPs is TIMP-1. […] Shown in FIG. 11 is PCR data showing the up-regulation of TIMP-1 mRNA by these compounds.

With CCOc1cc(C=O)ccc1O [EV, ethyl vanillin] as the compound, how does the “mRNA for HAS-2” value [1] read?
The value was “stimulate”.

And the “collagen production (collagen mRNA)” value (collagen 1 mRNA)?
Its value is “stimulation”.

And the “time within which EV significantly decomposes” value [2]?
Its value is 24 to 48 h.

What about the “level of several MMPs (protein abundance)” value [3] of the same compound?
Its value is “reduce”.

And the “elastin levels (elastin mRNA)” value (elastin mRNA)?
The value was “increase”.

And the “production of TIMP-1 (TIMP-1 mRNA)” value (TIMP-1)?
The value was “significantly stimulate”.
